Data published in patent US11725036B2, “Modified lipidated relaxin B chain peptides and their therapeutic use” (Sanofi, priority 2018, dated 2023).
≈ marks a conversion by molar mass, not a printed value. Like-named read-outs stand apart in the source and are kept apart here. Starred links: 1 amine or outer side, 2 acyl side, 3 side chain; linkers in the order of their positions; H or OH if unused. Non-standard residues stand in square brackets, D forms with d. Residues, ends and D or L forms follow the SMILES beside them. Groups on a side chain read outwards from the residue. *: point of attachment. X1 = CCCCCCCCCCCCCCCC(=O)N[C@@H](CCC(=O)N[C@@H](CCC(=O)N[C@@H](CCC(=O)NCCCOCCOCCOCCCNC(=O)CCC(=O)NCCCOCCOCCOCCCNC(=O)CCC(=O)NCCCOCCOCCOCCCN*)C(=O)O)C(=O)O)C(=O)O; X4 = CCCCCCCCCCCCCCCCCC(=O)N[C@@H](CCC(=O)N[C@@H](CCC(=O)N[C@@H](CCC(=O)NCCCOCCOCCOCCCNC(=O)CCC(=O)NCCCOCCOCCOCCCN*)C(=O)O)C(=O)O)C(=O)O; Suc = O=C(CCC(=O)[*:2])[*:1]; Aib = CC(C)(N)C(=O)O

What was measured:
[1] = Stability in human plasma; type: in vitro ADME; details: for Human Plasma stability % remaining: T = 0, 37° C., 5 μM
Description: (§1) Prior to the testing of stability in plasma (or blood) of a peptide batch, its purity (HPLC-UV) was determined.
(§2) Rat and Human plasma: anti-coagulant sodium or lithium heparin.
(§3) 100 μM solution of study compound in 50 mM phosphate buffer pH 7.4.
(§4) 950 μL plasma (or blood) was pre-incubated for 5 min at 37° C. 50 μL of compound stock solution was added. Final compound concentration=5 μM. Vortex and transfer 150 μL plasma (or blood) into an Eppendorf for each time point. The time points […] were carried out in duplicate for each species.
(§5) After incubation, 150 μL plasma (or blood) was extracted with 600 μL Acetonitrile containing 1% TFA. Said mixture was then vortexed and centrifuged 10 min at 14600 rpm. 200 μL supernatant was dried under N2. Sample was then reconstituted in 200 μL of H2O/CH3CN 98/2+0.1% FA+50 ng/ml Labetalol and analyzed using the analytical system used in solubility and stability studies.
(§6) For determination of the amount of the remaining peptide, the peak areas of the target compound at t0 and each time point […] were compared, resulting in “% remaining peptide”, following the equation: % remaining peptide=[(peak area peptide time)×100]/peak area peptide t0. The stability was expressed as “% remaining peptide”.

Stability in rat plasma = type: in vitro ADME; details: for Rat plasma stability % remaining: T = 0, 37° C., 5 μM
Description: as §1, §2, §3, §4, §5, §6

RXFP1 = biological target: T1, RXFP1 (Homo sapiens, UniProt Q9HBX9); assay: OVCAR5 cAMP assay (HTRF); type: cell-based; details: for EC50: OVCAR 5 cells expressing endogenous RXFP1, cAMP readout; for Emax: OVCAR 5 cells, maximal cAMP relative to H2-relaxin
T1 construct: OVCAR5 cells expressing endogenous RXFP1; endogenous in cells; host or cells: OVCAR5
T1 sequence (Q9HBX9 1-757): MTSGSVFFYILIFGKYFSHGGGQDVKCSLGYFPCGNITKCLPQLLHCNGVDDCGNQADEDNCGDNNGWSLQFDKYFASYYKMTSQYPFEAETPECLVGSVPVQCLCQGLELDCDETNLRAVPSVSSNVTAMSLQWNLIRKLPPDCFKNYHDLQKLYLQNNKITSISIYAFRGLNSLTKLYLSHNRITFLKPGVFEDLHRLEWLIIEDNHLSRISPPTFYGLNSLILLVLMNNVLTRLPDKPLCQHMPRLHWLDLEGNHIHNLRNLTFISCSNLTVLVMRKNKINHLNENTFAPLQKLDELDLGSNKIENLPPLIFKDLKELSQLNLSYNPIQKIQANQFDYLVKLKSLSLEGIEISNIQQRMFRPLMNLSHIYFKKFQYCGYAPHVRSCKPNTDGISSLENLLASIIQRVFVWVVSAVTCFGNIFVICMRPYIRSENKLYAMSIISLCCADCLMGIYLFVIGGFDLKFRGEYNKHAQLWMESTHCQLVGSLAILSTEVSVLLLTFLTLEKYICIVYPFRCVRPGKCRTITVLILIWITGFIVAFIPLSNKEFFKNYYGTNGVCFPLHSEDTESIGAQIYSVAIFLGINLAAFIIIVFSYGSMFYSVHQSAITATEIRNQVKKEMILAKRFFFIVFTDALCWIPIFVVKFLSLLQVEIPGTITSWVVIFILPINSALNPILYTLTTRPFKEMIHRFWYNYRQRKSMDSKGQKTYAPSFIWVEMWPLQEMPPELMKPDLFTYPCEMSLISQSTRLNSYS
In short: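 Endogenous RXFP1 in OVCAR5 cells, pretreated 40 min at 37° C with 1 mM IBMX, then exposed to increasing peptide concentrations in serum-free medium for 30 min at 37° C. cAMP read by HTRF; EC50 by variable-slope sigmoidal fit, Emax as % of H2-relaxin maximal cAMP in same run.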

[2] = Solubility testing in buffer; type: physicochemical; details: target solubility 10.0 mg/ml
in vivo = assay: in vivo; parameters: species or system Sprague Dawley rats; details: rat; for bioavailability / Cmax / Tmax: sc; for Cmax / Tmax: 3 mg/kg
Description: Prior to the testing of a peptide batch, its purity (HPLC-UV) was determined. Dose was corrected for presence of salts, solvent and purity. Bioanalytical screening method for quantification of peptides in rat: Sprague Dawley rats were dosed with study peptide at a dose of 1 mg/kg intravenously (i.v.) or 3 mg/kg subcutaneously (s.c.) as a solution in PBS (0.2 mg/ml and 0.6 mg/ml respectively). Blood samples were collected after: 0.083, 0.25, 0.5, 1, 2, 4, 8, 24, 48 and 72 h (i.v. route) and 0.25, 0.5, 1, 2, 4, 6, 8, 10, 24, 48 and 72 h (s.c route) post application. Plasma samples were analyzed after protein precipitation via liquid chromatography mass spectrometry (LC/MS). PK parameters and half-life were calculated using Phoenix 64 (WinNonlin 6.4)-Pharsight (Certara™) (non-compartment model). Values below the limit of quantification (BLQ) were replaced by zero for subsequent calculations and PK analysis. T½: in-vivo half-life, time required for test compound plasma concentration to be divided by two during the PK experiment. C0: Extrapolated test compound plasma concentration at t=0 time point (i.v. route). Cmax: maximal test compound plasma concentration at the indicated time point (s.c. route). Tmax: Time point where Cmax was attained. F %: s.c. vs i.v. bioavailability, dose-corrected area under curve (AUC) s.c. route divided by AUC i.v.

Human Plasma stability % remaining [1] [%] | Rat plasma stability % remaining (Stability in rat plasma) [%] | EC50 (RXFP1) [nM] | Emax (RXFP1) [%] | solubility ([2]; acetate buffer 50 mM pH 4.5, read-out: Solubility Acetate buffer pH 4.5) [µg/mL] | solubility ([2]; phosphate buffer 50 mM pH 7.4, read-out: Solubility phosphate buffer pH 7.4) [µg/mL] | C0 (in vivo; Sprague Dawley, iv, 1 mg/kg) [nM] | half-life (in vivo; Sprague Dawley, iv, 1 mg/kg) [h] | bioavailability (in vivo; Sprague Dawley) [%] | Cmax (in vivo; Sprague Dawley) [nM] | Tmax (in vivo; Sprague Dawley) [h] | remaining at 1 h, 5 μM ([1]; human, plasma (sodium or lithium heparin), 1 h, 37° C.) [%] | remaining at 4 h, 5 μM ([1]; human, plasma (sodium or lithium heparin), 4 h, 37° C.) [%] | remaining at 1 h, 5 μM (Stability in rat plasma; rat, plasma (sodium or lithium heparin), 1 h, 37° C.) [%] | Compound | C0 (in vivo; iv, 1 mg/kg) [nM] | T½ (h), in-vivo half-life (in vivo; iv, 1 mg/kg) [h]
100 | 100 | – | – | – | – | – | – | – | – | – | – | – | – | Ac-VIKLSGRELVRAQIAISGMSTWSKRSL-NH2 [AcB7-33 C11.23S, reference compound] | – | –
– | – | 0.18 | 93 | 9260 (≈ 2080 µM) | 8840 (≈ 1980 µM) | 4910 | 4.89 | 65 | 2070 | 6 | – | – | – | CCCCCCCCCCCCCCCC(=O)N[C@@H](CCC(=O)N[C@@H](CCC(=O)N[C@@H](CCC(=O)NCCCOCCOCCOCCCNC(=O)CCC(=O)NCCCOCCOCCOCCCNC(=O)CCC(=O)NCCCOCCOCCOCCCNC(=O)CCC(=O)NCCCC[C@H](NC(=O)CNC(=O)[C@H](CCC(=O)O)NC(=O)C(C)(C)NC(=O)C(C)(C)NC(=O)[C@@H](NC(=O)[C@H](CCCCNC(C)=O)NC(=O)[C@H](C)NC(=O)[C@H](CCCNC(=N)N)NC(=O)[C@@H](NC(=O)[C@H](CCCNC(=N)N)NC(=O)[C@H](CCC(=O)O)NC(=O)[C@H](CCCNC(=N)N)NC(=O)CNC(=O)[C@H](CCC(=O)O)NC(=O)[C@H](CC(C)C)NC(C)=O)C(C)C)[C@@H](C)CC)C(=O)N[C@@H](CO)C(=O)N[C@H](C(=O)N[C@@H](Cc1c[nH]c2ccccc12)C(=O)N[C@@H](CO)C(=O)NC(C)(C)C(=O)N[C@@H](CCCNC(=N)N)C(=O)N[C@@H](CCCNC(=N)N)C(=O)N[C@@H](CCCCNC(C)=O)C(N)=O)[C@@H](C)O)C(=O)O)C(=O)O)C(=O)O [compound 55] (Ac-LEGRERVRAK(Ac)I[Aib][Aib]EGK([Suc-X1])STWS[Aib]RRK(Ac)-NH2) | – | –
97 | 97 | 0.27 | 95 | – | – | 5170 | 5.59 | 72 | 2710 | 8 | 92 | 91 | 94 | CCCCCCCCCCCCCCCCCC(=O)N[C@@H](CCC(=O)N[C@@H](CCC(=O)N[C@@H](CCC(=O)NCCCOCCOCCOCCCNC(=O)CCC(=O)NCCCOCCOCCOCCCNC(=O)CCC(=O)NCCCC[C@H](NC(=O)CNC(=O)[C@H](CCC(=O)O)NC(=O)C(C)(C)NC(=O)C(C)(C)NC(=O)[C@@H](NC(=O)[C@H](CCCCNC(C)=O)NC(=O)[C@H](C)NC(=O)[C@H](CCCNC(=N)N)NC(=O)[C@@H](NC(=O)[C@H](CCCCN)NC(=O)[C@H](CCC(=O)O)NC(=O)[C@H](CCCNC(=N)N)NC(=O)CNC(=O)[C@H](CCC(=O)O)NC(=O)[C@H](CC(C)C)NC(C)=O)C(C)C)[C@@H](C)CC)C(=O)N[C@@H](CO)C(=O)N[C@H](C(=O)N[C@@H](Cc1c[nH]c2ccccc12)C(=O)N[C@@H](CO)C(=O)NC(C)(C)C(=O)N[C@@H](CCCNC(=N)N)C(=O)N[C@@H](CCCCN)C(=O)N[C@@H](CCCCNC(C)=O)C(N)=O)[C@@H](C)O)C(=O)O)C(=O)O)C(=O)O [compound 6] (Ac-LEGREKVRAK(Ac)I[Aib][Aib]EGK([Suc-X4])STWS[Aib]RKK(Ac)-NH2) | – | –
– | – | – | – | – | – | – | – | – | – | – | – | – | – | H2-Relaxin: 6-kDa peptidic hormone of 53 amino acids; A chain (SEQ ID NO: 100) and B chain (SEQ ID NO: 101) cross-linked by disulfide bonds | 870 | 0.46
